Results as given in ChEMBL document CHEMBL3351521, “Benzene-1,3-dicarboxylic acid 2,5-dimethylpyrrole derivatives as multiple inhibitors of bacterial Mur ligases (MurC-MurF)” (Bioorg Med Chem, 2014).
Converted amounts (≈) assume the structure as drawn.

Tests used:
[1] = biological target: T1, UDP-N-acetylmuramoyl-tripeptide--D-alanyl-D-alanine ligase (Escherichia coli K-12, UniProt P11880); experiment: Inhibition of Escherichia coli MurF after 15 mins in presence of 0.005% Triton X-114 by Malachite green assay
T1 sequence (P11880 whole entry): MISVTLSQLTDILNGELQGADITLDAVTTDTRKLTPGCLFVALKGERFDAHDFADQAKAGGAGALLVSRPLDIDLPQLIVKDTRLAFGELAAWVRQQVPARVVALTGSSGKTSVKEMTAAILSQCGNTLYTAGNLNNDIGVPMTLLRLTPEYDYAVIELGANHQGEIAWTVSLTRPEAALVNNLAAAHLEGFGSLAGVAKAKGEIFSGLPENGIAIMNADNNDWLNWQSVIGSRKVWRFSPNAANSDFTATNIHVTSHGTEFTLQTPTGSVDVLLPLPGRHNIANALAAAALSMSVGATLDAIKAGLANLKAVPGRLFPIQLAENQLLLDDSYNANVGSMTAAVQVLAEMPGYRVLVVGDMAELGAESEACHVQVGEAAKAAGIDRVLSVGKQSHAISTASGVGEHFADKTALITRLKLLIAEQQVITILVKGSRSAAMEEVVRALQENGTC

[2] = biological target: T2, UDP-N-acetylmuramoyl-L-alanyl-D-glutamate--2,6-diaminopimelate ligase (Escherichia coli (strain K12), UniProt P22188); experiment: Inhibition of Escherichia coli MurE after 15 mins in presence of 0.005% Triton X-114 by Malachite green assay
T2 sequence (P22188 whole entry): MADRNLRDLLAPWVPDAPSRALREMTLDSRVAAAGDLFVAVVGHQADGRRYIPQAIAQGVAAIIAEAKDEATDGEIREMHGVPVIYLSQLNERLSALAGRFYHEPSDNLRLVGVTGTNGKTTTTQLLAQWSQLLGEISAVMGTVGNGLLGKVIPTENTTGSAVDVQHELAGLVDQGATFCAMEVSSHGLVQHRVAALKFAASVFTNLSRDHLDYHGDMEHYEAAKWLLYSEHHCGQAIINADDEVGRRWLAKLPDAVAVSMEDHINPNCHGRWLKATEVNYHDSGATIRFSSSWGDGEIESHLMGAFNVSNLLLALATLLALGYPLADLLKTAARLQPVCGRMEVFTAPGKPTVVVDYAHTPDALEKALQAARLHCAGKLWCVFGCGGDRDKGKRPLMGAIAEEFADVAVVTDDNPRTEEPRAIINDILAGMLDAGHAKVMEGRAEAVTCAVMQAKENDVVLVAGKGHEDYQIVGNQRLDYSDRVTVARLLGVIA

[3] = biological target: T3, UDP-N-acetylmuramoylalanine--D-glutamate ligase (Escherichia coli K-12, UniProt P14900); experiment: Inhibition of Escherichia coli MurD after 15 mins in presence of 0.005% Triton X-114 by Malachite green assay
T3 sequence (P14900 whole entry): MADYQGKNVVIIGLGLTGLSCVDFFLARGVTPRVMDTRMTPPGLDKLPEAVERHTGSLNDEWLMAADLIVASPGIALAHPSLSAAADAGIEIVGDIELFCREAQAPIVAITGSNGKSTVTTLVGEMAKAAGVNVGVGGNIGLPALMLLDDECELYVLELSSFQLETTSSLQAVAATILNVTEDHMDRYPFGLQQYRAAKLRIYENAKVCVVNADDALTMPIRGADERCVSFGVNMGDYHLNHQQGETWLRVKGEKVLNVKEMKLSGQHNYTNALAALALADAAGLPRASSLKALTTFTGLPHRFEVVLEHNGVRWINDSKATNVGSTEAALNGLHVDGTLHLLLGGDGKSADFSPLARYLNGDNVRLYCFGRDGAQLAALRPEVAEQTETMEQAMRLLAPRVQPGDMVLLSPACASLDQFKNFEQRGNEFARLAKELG

[4] = biological target: UDP-N-acetylmuramate--L-alanine ligase (Escherichia coli K-12, UniProt P17952); experiment: Inhibition of Escherichia coli MurC after 15 mins in presence of 0.005% Triton X-114 by Malachite green assay
Enterococcus faecalis = experiment: Antimicrobial activity against Enterococcus faecalis ATCC 29212 after 16 to 20 hrs; format: functional
Haemophilus influenzae = experiment: Antimicrobial activity against Haemophilus influenzae ATCC 49766 after 20 to 24 hrs; format: functional
Staphylococcus aureus = experiment: microbe, parasite or virus in culture; details: ATCC 29213
Description: Antimicrobial activity against Staphylococcus aureus ATCC 29213 after 16 to 20 hrs

[5] = biological target: T4, UDP-N-acetylmuramoyl-tripeptide--D-alanyl-D-alanine ligase (Escherichia coli K-12) (UniProt P11880); experiment: Inhibition of Escherichia coli MurF assessed as residual enzyme activity at 250 uM after 15 mins in presence of 0.005% Triton X-114 by Malachite green assay
T4 sequence (whole entry): T1 sequence (P11880 whole entry)

[6] = biological target: UDP-N-acetylmuramate--L-alanine ligase (Escherichia coli K-12) (UniProt P17952); experiment: Inhibition of Escherichia coli MurC assessed as residual enzyme activity at 250 uM after 15 mins in presence of 0.005% Triton X-114 by Malachite green assay
[7] = biological target: T5, UDP-N-acetylmuramoyl-L-alanyl-D-glutamate--2,6-diaminopimelate ligase (Escherichia coli (strain K12)) (UniProt P22188); experiment: Inhibition of Escherichia coli MurE assessed as residual enzyme activity at 250 uM after 15 mins in presence of 0.005% Triton X-114 by Malachite green assay
T5 sequence (whole entry): T2 sequence (P22188 whole entry)

[8] = biological target: T6, UDP-N-acetylmuramoylalanine--D-glutamate ligase (Escherichia coli K-12) (UniProt P14900); experiment: Inhibition of Escherichia coli MurD assessed as residual enzyme activity at 250 uM after 15 mins in presence of 0.005% Triton X-114 by Malachite green assay
T6 sequence (whole entry): T3 sequence (P14900 whole entry)

[9] = biological target: T3, UDP-N-acetylmuramoylalanine--D-glutamate ligase; experiment: Competitive inhibition of Escherichia coli MurD using D-Glu substrate by steady-state enzyme kinetics assay
[10] = biological target: T3, UDP-N-acetylmuramoylalanine--D-glutamate ligase; experiment: Partial un-competitive inhibition of Escherichia coli MurD using ATP substrate by steady-state enzyme kinetics assay
[11] = biological target: T3, UDP-N-acetylmuramoylalanine--D-glutamate ligase; experiment: Partial non-competitive inhibition of Escherichia coli MurD using UMA substrate by steady-state enzyme kinetics assay

Sequence of UDP-N-acetylmuramate--L-alanine ligase (Escherichia coli K-12) (P17952 whole entry, looked up): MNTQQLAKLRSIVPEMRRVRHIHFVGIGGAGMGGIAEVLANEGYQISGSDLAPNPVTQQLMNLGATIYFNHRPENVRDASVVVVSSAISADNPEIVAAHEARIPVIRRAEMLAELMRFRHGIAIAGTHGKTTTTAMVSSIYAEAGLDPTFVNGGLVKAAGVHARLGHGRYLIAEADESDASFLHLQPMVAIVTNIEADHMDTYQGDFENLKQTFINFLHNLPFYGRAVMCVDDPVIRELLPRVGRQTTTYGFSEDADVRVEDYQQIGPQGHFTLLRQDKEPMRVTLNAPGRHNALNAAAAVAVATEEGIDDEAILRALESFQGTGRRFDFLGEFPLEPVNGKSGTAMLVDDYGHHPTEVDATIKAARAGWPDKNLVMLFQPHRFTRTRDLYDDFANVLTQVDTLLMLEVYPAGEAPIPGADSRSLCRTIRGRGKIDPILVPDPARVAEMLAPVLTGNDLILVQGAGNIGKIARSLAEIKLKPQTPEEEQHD
Sequence of UDP-N-acetylmuramate--L-alanine ligase (P17952 whole entry): as the sequence (P17952 whole entry, looked up) above

| Compound | IC50 [2] | Activity [5] | Activity [6] | Activity [7] | Activity [8] | further results |
| --- | --- | --- | --- | --- | --- | --- |
| Cc1cc(/C=C2/S/C(=N/c3ccccc3)NC2=O)c(C)n1-c1cc(C(=O)O)cc(C(=O)O)c1 | 494 µM | – | – | – | – | IC50 [1]: 298 µM; IC50 [3]: 206 µM; IC50 [4]: 205 µM; MIC (Enterococcus faecalis): > 256 µg/mL; MIC (Haemophilus influenzae): 256 µg/mL (≈ 555 µM); MIC (Staphylococcus aureus): > 256 µg/mL |
| Cc1ccc(/N=C2\NC(=O)/C(=C\c3cc(C)n(-c4cc(C(=O)O)cc(C(=O)O)c4)c3C)S2)cc1 | 245 µM | – | – | – | – | IC50 [1]: 201 µM; IC50 [3]: 170 µM; IC50 [4]: 107 µM |
| Cc1cc(/C=C2/C(=O)NC(=S)N(c3cccc(Cl)c3Cl)C2=O)c(C)n1-c1cc(C(=O)O)cc(C(=O)O)c1 | – | 86% | 96% | – | – | – |
| O=C1N/C(=N\c2ccc(Br)cc2)S/C1=C/c1c[nH]c2ccccc12 | – | 75% | 87% | 90% | 102% | – |
| O=C1NC(=S)N(c2ccc(Cl)cc2)C(=O)/C1=C\c1cc2ccccc2[nH]1 | 44 µM | 20% | 77% | – | 71% | – |
| COc1ccc(/N=C2\NC(=O)/C(=C\c3cc(C)n(-c4cc(C(=O)O)cc(C(=O)O)c4)c3C)S2)cc1 | 303 µM | – | – | – | – | IC50 [1]: 281 µM; IC50 [3]: 168 µM; IC50 [4]: 172 µM |
| CCc1ccc(N2C(=O)/C(=C\c3cc(C)n(C4CCCCC4)c3C)C(=O)NC2=S)cc1 | – | 75% | 92% | 97% | 100% | – |
| Cc1cc(/C=C2/S/C(=N/c3ccc(Cl)cc3)NC2=O)c(C)n1-c1cc(C(=O)O)cc(C(=O)O)c1 | 93 µM | – | – | – | – | IC50 [1]: 89 µM; IC50 [3]: 60 µM; IC50 [4]: 41 µM; Ki [9]: 21 µM; Ki [10]: 39 µM; Ki [11]: 29 µM |
| Cc1cc(/C=C2/S/C(=N/c3ccc(Br)cc3)NC2=O)c(C)n1-c1cc(C(=O)O)cc(C(=O)O)c1 | 89 µM | – | – | – | – | IC50 [1]: 102 µM; IC50 [3]: 66 µM; IC50 [4]: 44 µM |
| Cc1cc(/C=C2/C(=O)NC(=S)N(c3cccc(Cl)c3)C2=O)c(C)n1-c1cc(C(=O)O)cc(C(=O)O)c1 | – | 78% | 80% | – | – | – |
| CO/N=C(\C(=O)N[C@@H]1C(=O)N2C(C(=O)O)=C(COC(N)=O)CS[C@H]12)c1ccco1 [CEFUROXIME] | – | – | – | – | – | MIC (Haemophilus influenzae): 0.5 µg/mL (≈ 1.18 µM) |
| Cc1cc(/C=C2/C(=O)NC(=S)N(c3ccccc3F)C2=O)c(C)n1-c1cc(C(=O)O)cc(C(=O)O)c1 | 311 µM | – | 60% | – | 71% | IC50 [1]: 344 µM |
| O=C1NC(=S)N(c2ccc(Br)cc2)C(=O)/C1=C\c1ccc2c(c1)OCO2 | – | 95% | 120% | 81% | 91% | – |
| Cc1cc(/C=C2/C(=O)NC(=O)N(c3ccc(Br)cc3)C2=O)c(C)n1-c1cc(C(=O)O)cc(C(=O)O)c1 | 211 µM | 60% | 62% | – | 71% | – |
| Cc1cc(/C=C2/SC(=S)NC2=O)c(C)n1-c1cc(C(=O)O)cc(C(=O)O)c1 | – | 89% | – | – | – | IC50 [3]: 95 µM; IC50 [4]: 133 µM; MIC (Enterococcus faecalis): 128 µg/mL (≈ 318 µM); MIC (Haemophilus influenzae): 256 µg/mL (≈ 636 µM); MIC (Staphylococcus aureus): > 256 µg/mL |
| CCc1ccc(N2C(=O)NC(=O)/C(=C/c3cc(C)n(-c4cc(C(=O)O)cc(C(=O)O)c4)c3C)C2=O)cc1 | 330 µM | 75% | 74% | – | 81% | – |
| Cc1cc(/C=C2/S/C(=N/c3ccc(F)cc3)NC2=O)c(C)n1C | – | 67% | 82% | 76% | 78% | – |
| CCc1ccccc1N1C(=O)/C(=C\c2cc(C)n(-c3cc(C(=O)O)cc(C(=O)O)c3)c2C)C(=O)NC1=S | – | 68% | 85% | – | – | – |
| C/N=C1/S/C(=C/c2cc(C)n(-c3cc(C(=O)O)cc(C(=O)O)c3)c2C)C(=O)N1C | – | 95% | 106% | 97% | 89% | – |
| GENTAMICIN | – | – | – | – | – | MIC (Enterococcus faecalis): 8 µg/mL |
| Cc1cc(/C=C2/S/C(=N/c3cccc(Br)c3)NC2=O)c(C)n1C1CCCCC1 | – | 93% | 89% | 91% | 79% | – |
| Cc1cc(/C=C2/C(=O)NC(=S)N(c3ccccc3)C2=O)c(C)n1-c1cc(C(=O)O)cc(C(=O)O)c1 | – | 84% | 75% | – | – | MIC (Enterococcus faecalis): > 256 µg/mL; MIC (Haemophilus influenzae): > 256 µg/mL; MIC (Staphylococcus aureus): > 256 µg/mL |
| O=C1NC(=S)N(c2ccc(F)cc2)C(=O)/C1=C\c1ccc2c(c1)OCO2 | – | 81% | 108% | 97% | 102% | – |
